Measured values reported in US20220041616A1, “SPIRO COMPOUND AND MEDICAL USES THEREOF” (The National Institutes of Pharmaceutical R&D Co., Ltd., priority 2018, published 2022).

Molecular target: T1, ACC1 (Homo sapiens, UniProt Q13085)
T1 construct: purchased BPS bioscience
Test: In vitro inhibition of ACC1 activity, ADP-Glo Kinase Analysis
Assay type: biochemical
Details: 1 nM ACC1, 10 μM acetyl-CoA, 20 μM ATP
Outline: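 Enzyme was preincubated with compound for 15 min, then reacted for 30 min at room temperature in 5% DMSO, with ADP measured by ADP-Glo luminescence. ACC1: 1 nM, with 10 μM acetyl-CoA, 30 mM NaHCO3 and 20 μM ATP. ACC2: 1.1 nM, with 20 μM acetyl-CoA, 20 mM NaHCO3 and 15 μM ATP.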

Row | IC50 [nM] | SMILES
1 | < 10 | COc1ccccc1C(CN1C(=O)C2(CCC(C(=O)O)C2)C(=O)c2c1sc(-c1ncco1)c2C)OC1CCOCC1 (mixture of isomers) [Compound 5x, 7′-(2-(2-methoxyphenyl)-2-((tetrahydro-2H-pyran-4-yl)oxy)ethyl)-3′-methyl-2′-(oxazol-2-yl)-4′,6′-dioxo-6′,7′-dihydro-4′H-spiro[cyclopentane-1,5′-thieno[2,3-b]pyridine]-3-carboxylic Acid]
2 | < 10 | COc1ccccc1C(CN1C(=O)C2(CCC(C(=O)O)C2)C(=O)c2c1sc(-c1ncco1)c2C)OC1CCOCC1 (mixture of isomers) [Compound 5y, 7′-(2-(2-methoxyphenyl)-2-((tetrahydro-2H-pyran-4-yl)oxy)ethyl)-3′-methyl-2′-(oxazol-2-yl)-4′,6′-dioxo-6′,7′-dihydro-4′H-spiro[cyclopentane-1,5′-thieno[2,3-b]pyridine]-3-carboxylic Acid]
3 | < 10 | COc1ccccc1C(CN1C(=O)C2(CC(C(=O)O)C2)C(=O)c2c1sc(-c1ncco1)c2C)OC1CCOCC1 (mixture of isomers) [Compound 8, 7′-(2-(2-methoxyphenyl)-2-((tetrahydro-2H-pyran-4-yl)oxy)ethyl)-3′-methyl-2′-(oxazol-2-yl)-4′,6′-dioxo-6′,7′-dihydro-4′H-spiro[cyclobutane-1,5′-thieno[2,3-b]pyridine]-3-carboxylic Acid]
4 | < 10 | COc1ccccc1C(CN1C(=O)C2(CCC(C(=O)O)C2)C(=O)c2c1sc(-c1ncco1)c2C)OC1CCOCC1 (single isomer, unassigned) [Compound 5b, 7′-(2-(2-methoxyphenyl)-2-((tetrahydro-2H-pyran-4-yl)oxy)ethyl)-3′-methyl-2′-(oxazol-2-yl)-4′,6′-dioxo-6′,7′-dihydro-4′H-spiro[cyclopentane-1,5′-thieno[2,3-b]pyridine]-3-carboxylic Acid]
5 | < 10 | COc1ccccc1C(CN1C(=O)C2(CC(C(=O)O)C2)C(=O)c2c1sc(-c1ncco1)c2C)OC1CCOCC1 (single isomer, unassigned) [Compound 8d, 7′-(2-(2-methoxyphenyl)-2-((tetrahydro-2H-pyran-4-yl)oxy)ethyl)-3′-methyl-2′-(oxazol-2-yl)-4′,6′-dioxo-6′,7′-dihydro-4′H-spiro[cyclobutane-1,5′-thieno[2,3-b]pyridine]-3-carboxylic Acid]
6 | < 10 | COc1ccccc1[C@H](CN1c2sc(-c3ncco3)c(C)c2C(=O)[C@]2(C[C@H](C(=O)O)C2)C1=O)OC1CCOCC1 [Compound 8c, 7′-(2-(2-methoxyphenyl)-2-((tetrahydro-2H-pyran-4-yl)oxy)ethyl)-3′-methyl-2′-(oxazol-2-yl)-4′,6′-dioxo-6′,7′-dihydro-4′H-spiro[cyclobutane-1,5′-thieno[2,3-b]pyridine]-3-carboxylic Acid]
